In ChEMBL document CHEMBL1201862, “PubChem BioAssay data set” (2004):
Values joined by “and” are separate entries in the source; they are usually repeats but may differ in a detail not shown here. Identical values can stand only once. Active and inactive are the calls of the source.

Experiments:
Estrogen receptor = Estrogen receptor (Homo sapiens, UniProt P03372);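 also: potency for inhibiting coactivator peptide recruitment to the receptor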
Bcl-2-related protein A1 [1] = biological target: T1, Bcl-2-related protein A1 (Mus musculus, UniProt Q07440); assay: Bfl-1 inhibitors blocking BH3 peptide binding, confirmation, biochemical, TR-FRET, mouse Bfl-1 (AID 621);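 also: TR-FRET binding of GST-Bfl-1 to FITC-labelled Bid peptide via terbium antibody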
T1 sequence (Q07440 whole entry): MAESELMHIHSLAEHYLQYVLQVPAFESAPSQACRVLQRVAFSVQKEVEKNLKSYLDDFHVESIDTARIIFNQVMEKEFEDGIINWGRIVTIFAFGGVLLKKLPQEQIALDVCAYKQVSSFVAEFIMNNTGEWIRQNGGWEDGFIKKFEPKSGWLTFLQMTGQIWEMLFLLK

Bcl-2-related protein A1 [2] = biological target: T1, Bcl-2-related protein A1; assay: Bfl-1 binding inhibitors, SAR follow-up, biochemical, fluorescence polarization (AID 1070)
[3] = biological target: Glyceraldehyde-3-phosphate dehydrogenase (Homo sapiens, UniProt P04406)
[4] = C. albicans growth with fluconazole, confirmation, fluorescence, retest (AID 2467); format: functional, cell-based
[5] = inhibitors of intracellular T. cruzi replication, confirmation, NIH3T3 host cells, beta-gal luminescence (AID 2044); format: functional, cell-based;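 also: intracellular parasites grown in NIH/3T3 mouse fibroblasts as host cells; luminescent beta-galactosidase reporter signal from transgenic T. cruzi replicating inside host cells; inhibitors lower the luminescence signal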
[6] = biological target: T2, Microphthalmia-associated transcription factor (Homo sapiens, UniProt O75030); assay: TRPM1 promoter luciferase signal decrease, dose response, MITF inhibitor project, cell-based, SK-MEL-5, cherry-picked, set 3 (AID 493073); format: functional
T2 sequence (O75030 whole entry): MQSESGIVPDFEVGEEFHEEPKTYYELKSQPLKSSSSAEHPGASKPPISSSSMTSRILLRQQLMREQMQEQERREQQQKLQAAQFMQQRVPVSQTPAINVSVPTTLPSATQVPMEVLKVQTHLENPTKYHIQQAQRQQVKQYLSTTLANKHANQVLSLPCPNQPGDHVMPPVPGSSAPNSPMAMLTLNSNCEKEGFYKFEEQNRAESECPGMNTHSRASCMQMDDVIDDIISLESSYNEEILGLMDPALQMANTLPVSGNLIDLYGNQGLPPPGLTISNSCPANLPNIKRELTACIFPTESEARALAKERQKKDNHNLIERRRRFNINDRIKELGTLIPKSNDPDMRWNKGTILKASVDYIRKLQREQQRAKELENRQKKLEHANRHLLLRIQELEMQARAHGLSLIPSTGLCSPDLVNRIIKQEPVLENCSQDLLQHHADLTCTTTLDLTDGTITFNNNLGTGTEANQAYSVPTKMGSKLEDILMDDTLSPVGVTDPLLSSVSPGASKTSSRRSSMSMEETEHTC

[7] = cytotoxicity toward NIH3T3 fibroblasts, dose response, counter-screen, cell-based, ATP luminescence, mouse fibroblasts (AID 2010); format: functional;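 also: cells exposed to compound for about 90 hours before reading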
[8] = biological target: T3, Ubiquitin-conjugating enzyme E2 N (Homo sapiens, UniProt P61088); format: functional;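 also: Dose-response confirmation in a TR-FRET assay detecting UBC13-driven polyubiquitin chain formation, inhibition measured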
T3 sequence (P61088 whole entry): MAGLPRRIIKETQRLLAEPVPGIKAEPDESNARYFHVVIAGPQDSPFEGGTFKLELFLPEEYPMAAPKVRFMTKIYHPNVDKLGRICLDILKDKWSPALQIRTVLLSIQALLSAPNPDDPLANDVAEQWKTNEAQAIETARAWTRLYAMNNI

A-375 = assay: MITF: Counter assay: A375 proliferation Measured in Cell-Based System Using Plate Reader - 2084-03_Inhibitor_Dose_DryPowder_Activity. [Related pubchem assays (depositor defined):AID488944]; format: functional; conditions: Homo sapiens
cells [9] = assay: cells
INS1 = assay: beta cell apoptosis inhibitors, cytokine rescue, dose response, luminescence, retest (AID 449756); format: functional, cell-based;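 also: cell death triggered by IL-1 beta plus TNF-alpha plus IFN-gamma mixture; protective hits raise ATP signal compared with cytokine alone wells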
[10] = biological target: Peroxisome proliferator-activated receptor gamma/Nuclear receptor coactivator 3 (Homo sapiens, UniProt P37231); format: functional;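 also: agonist potency for raising coactivator recruitment to the receptor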
[11] = biological target: T4, Tyrosine-protein phosphatase non-receptor type 5 (Homo sapiens, UniProt P54829); assay: STEP phosphatase inhibitors, confirmation, biochemical, fluorescence intensity, uHTS hits (AID 602372); format: functional; conditions: read-out: IC50_Mean
T4 sequence (P54829 whole entry): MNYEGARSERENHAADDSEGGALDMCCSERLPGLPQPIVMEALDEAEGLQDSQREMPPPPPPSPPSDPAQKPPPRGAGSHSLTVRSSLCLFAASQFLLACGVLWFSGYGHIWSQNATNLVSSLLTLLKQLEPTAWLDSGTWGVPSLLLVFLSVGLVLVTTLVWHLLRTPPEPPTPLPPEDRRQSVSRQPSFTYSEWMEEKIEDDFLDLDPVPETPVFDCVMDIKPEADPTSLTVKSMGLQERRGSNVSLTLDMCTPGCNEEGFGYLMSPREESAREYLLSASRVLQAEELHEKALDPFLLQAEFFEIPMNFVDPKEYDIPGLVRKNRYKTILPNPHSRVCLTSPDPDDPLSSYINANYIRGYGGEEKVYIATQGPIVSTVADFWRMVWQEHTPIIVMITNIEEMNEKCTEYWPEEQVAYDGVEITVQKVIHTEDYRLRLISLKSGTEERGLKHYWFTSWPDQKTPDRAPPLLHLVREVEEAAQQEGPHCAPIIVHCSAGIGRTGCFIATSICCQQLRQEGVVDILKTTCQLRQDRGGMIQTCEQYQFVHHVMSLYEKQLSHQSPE

BJ [12] = assay: cytotoxicity toward BJ-TERT fibroblasts, dose response, cell-based, RAS-independent, luminescence (AID 1933); format: functional; conditions: Homo sapiens
BJ [13] = assay: cytotoxicity toward BJ-TERT-LT-ST fibroblasts, dose response, cell-based, RAS-independent, luminescence (AID 1935); format: functional; conditions: Homo sapiens;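 also: BJ fibroblasts immortalized with TERT plus LT and ST oncogenes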
BJ [14] = assay: cells; format: functional, cell-based; conditions: Homo sapiens
[15] = biological target: Peroxisome proliferator-activated receptor gamma/Nuclear receptor coactivator 1 (Homo sapiens, UniProt P37231); format: functional;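 also: agonist potency as compounds enhance coactivator SRC-1 recruitment to PPARgamma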
[16] = cytotoxicity toward DRD oncogenic fibroblasts, dose response, cell-based, non-viral oncogenic, luminescence (AID 1934); format: functional; conditions: Homo sapiens
Melanocortin receptor 4 = Melanocortin receptor 4 (Homo sapiens, UniProt P32245); format: functional, cell-based;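 also: Cell-based assay with luminescence read-out, confirmatory dose-response testing for agonist activity of biased ligands at MC4R; human U2OS cells with tagged receptor and beta-arrestin; potency of agonists that increase receptor coupling to beta-arrestin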
[17] = biological target: Peroxisome proliferator-activated receptor gamma/Nuclear receptor coactivator 2 (Homo sapiens, UniProt P37231); format: functional;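 also: agonist potency for raising coactivator recruitment to the receptor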
[18] = biological target: Protein-tyrosine kinase 2-beta (Homo sapiens, UniProt Q14289);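 also: potency of inhibitors of PYK2 kinase phosphorylation of poly-GT substrate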
[19] = biological target: T5, Tyrosine-protein phosphatase non-receptor type 11 (Homo sapiens, UniProt Q06124); assay: SHP2 phosphatase inhibition, dose response, selectivity assay for STEP inhibitor project, biochemical (AID 602367); format: functional; conditions: read-out: IC50_Mean
T5 sequence (Q06124 whole entry): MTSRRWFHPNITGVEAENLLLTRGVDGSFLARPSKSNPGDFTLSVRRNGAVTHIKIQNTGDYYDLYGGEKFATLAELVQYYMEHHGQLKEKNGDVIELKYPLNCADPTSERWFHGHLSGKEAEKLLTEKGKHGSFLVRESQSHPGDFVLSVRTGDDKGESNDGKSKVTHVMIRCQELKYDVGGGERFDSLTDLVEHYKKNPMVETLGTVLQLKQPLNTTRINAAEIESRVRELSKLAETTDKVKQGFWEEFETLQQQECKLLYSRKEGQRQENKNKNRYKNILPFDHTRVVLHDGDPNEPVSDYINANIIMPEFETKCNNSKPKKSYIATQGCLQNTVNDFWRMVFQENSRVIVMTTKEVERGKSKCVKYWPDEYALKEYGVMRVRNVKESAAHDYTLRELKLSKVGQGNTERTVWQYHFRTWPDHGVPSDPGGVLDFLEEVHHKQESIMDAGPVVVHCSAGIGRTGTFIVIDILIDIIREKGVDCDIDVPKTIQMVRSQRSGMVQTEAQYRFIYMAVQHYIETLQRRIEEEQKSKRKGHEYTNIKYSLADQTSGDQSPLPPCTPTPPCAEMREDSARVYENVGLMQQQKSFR

[20] = biological target: Dual specificity protein phosphatase 3 (Homo sapiens, UniProt P51452); assay: VHR phosphatase inhibition, dose response, selectivity assay for STEP inhibitor project, biochemical (AID 602374); format: functional; conditions: read-out: IC50_Mean
Estrogen receptor beta [21] = biological target: T6, Estrogen receptor beta (Homo sapiens, UniProt Q92731); assay: ERβ–SRC-3 coactivator interaction inhibitors, confirmation, orthogonal assay, biochemical, ELISA, streptavidin-HRP readout (AID 1060)
Galanin receptor type 3 = biological target: T7, Galanin receptor type 3 (Homo sapiens, UniProt O60755); assay: Fluorescence-based cell-based primary high throughput dose response assay to identify antagonists of the Galanin Receptor 3 (GalR3).; format: functional
T7 sequence (O60755 whole entry): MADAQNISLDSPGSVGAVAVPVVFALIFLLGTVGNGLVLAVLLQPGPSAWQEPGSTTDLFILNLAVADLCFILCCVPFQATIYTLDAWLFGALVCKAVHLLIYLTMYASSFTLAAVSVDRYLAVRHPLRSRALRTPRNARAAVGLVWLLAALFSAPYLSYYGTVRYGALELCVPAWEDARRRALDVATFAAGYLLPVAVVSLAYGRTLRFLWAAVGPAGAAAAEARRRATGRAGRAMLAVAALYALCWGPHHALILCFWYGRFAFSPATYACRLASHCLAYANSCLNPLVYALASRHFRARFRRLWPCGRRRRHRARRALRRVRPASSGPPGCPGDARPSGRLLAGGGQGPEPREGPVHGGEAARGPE

Estrogen receptor beta [22] = biological target: T6, Estrogen receptor beta
[23] = biological target: T8, Carboxy-terminal domain RNA polymerase II polypeptide A small phosphatase 1 (Homo sapiens, UniProt Q9GZU7); assay: inhibitors of CTDSP1, concentration-response testing, biochemical assay, absorbance-based, actives from ultra-high-throughput screening (AID 540297); format: functional
T8 sequence (Q9GZU7 whole entry): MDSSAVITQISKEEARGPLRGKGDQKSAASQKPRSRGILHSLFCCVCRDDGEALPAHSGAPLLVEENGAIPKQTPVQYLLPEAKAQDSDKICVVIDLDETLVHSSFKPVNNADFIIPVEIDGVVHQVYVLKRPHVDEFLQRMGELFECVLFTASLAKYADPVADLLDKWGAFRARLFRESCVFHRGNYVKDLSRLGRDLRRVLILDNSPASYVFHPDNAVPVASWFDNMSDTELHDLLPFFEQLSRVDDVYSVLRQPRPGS

cells [24] = format: functional, cell-based; conditions: HEK-CNG
[25] = biological target: Lytic switch protein BZLF1 (Epstein-Barr virus (strain B95-8) (HHV-4) (Human herpesvirus 4), UniProt P03206); assay: EBV ZTA inhibitors, dose response, counter-screen for EBNA-1 inhibitor project, biochemical, fluorescence polarization, Epstein-Barr virus, 1536-well (AID 2377); set-up: species or system human gammaherpesvirus 4;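 also: fluorescence polarization of Cy5-labelled ZRE DNA probe bound by purified Zta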
[26] = biological target: Epstein-Barr nuclear antigen 1 (Epstein-Barr virus (strain B95-8) (HHV-4) (Human herpesvirus 4), UniProt P03211); assay: EBNA-1 inhibitors, dose response, biochemical, fluorescence polarization, 1536-well (AID 2381); set-up: species or system human gammaherpesvirus 4;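 also: fluorescence polarization of a Cy5 DNA probe bound by EBNA-1 protein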
Epstein-Barr nuclear antigen 1, sequence (P03211 whole entry): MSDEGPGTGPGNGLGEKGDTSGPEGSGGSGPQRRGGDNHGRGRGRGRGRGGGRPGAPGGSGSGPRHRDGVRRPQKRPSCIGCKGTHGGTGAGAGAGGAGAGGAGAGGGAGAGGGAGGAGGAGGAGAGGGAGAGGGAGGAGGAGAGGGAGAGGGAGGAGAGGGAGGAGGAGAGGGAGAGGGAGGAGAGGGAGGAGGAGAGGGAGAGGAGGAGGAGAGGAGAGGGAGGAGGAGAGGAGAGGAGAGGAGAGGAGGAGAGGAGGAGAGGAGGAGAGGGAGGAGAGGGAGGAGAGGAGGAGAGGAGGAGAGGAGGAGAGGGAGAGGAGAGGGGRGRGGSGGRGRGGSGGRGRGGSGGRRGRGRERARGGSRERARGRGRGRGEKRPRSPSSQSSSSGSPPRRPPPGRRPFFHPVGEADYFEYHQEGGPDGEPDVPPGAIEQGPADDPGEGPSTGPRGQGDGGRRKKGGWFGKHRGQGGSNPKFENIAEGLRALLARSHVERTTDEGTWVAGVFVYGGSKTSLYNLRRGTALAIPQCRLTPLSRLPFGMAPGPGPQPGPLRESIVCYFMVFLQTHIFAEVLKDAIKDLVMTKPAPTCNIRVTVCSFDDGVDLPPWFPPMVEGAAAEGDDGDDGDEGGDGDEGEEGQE

T6 sequence (Q92731 whole entry): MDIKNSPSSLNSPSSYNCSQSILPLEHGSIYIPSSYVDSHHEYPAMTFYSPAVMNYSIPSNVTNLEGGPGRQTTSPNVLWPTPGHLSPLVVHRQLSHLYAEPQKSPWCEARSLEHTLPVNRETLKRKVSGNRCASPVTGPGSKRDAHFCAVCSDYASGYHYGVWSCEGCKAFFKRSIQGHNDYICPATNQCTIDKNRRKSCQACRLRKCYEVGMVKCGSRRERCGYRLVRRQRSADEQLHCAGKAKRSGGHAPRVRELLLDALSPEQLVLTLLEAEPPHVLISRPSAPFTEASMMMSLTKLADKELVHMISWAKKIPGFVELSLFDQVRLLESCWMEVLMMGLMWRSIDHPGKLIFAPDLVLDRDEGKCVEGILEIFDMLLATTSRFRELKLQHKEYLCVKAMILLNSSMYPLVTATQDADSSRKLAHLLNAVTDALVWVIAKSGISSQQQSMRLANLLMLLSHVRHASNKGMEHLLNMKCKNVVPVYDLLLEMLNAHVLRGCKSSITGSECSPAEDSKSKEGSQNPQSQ
Estrogen receptor, sequence (P03372 whole entry): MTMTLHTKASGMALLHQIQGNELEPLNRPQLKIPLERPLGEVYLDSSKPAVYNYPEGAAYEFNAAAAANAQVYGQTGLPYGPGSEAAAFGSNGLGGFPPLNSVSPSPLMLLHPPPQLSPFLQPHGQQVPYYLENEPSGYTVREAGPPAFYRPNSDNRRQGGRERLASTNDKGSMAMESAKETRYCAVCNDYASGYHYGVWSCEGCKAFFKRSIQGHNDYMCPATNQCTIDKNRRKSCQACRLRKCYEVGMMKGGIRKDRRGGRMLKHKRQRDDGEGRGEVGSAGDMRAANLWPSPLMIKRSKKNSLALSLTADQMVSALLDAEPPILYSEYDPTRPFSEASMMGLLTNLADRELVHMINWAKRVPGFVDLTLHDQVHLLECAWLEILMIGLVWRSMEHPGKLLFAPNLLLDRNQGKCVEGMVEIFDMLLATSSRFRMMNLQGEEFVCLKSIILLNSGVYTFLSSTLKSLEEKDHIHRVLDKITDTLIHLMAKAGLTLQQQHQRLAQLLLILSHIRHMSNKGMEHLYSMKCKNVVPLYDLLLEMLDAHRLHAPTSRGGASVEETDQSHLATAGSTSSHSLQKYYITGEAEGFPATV
Protein-tyrosine kinase 2-beta, sequence (Q14289 whole entry): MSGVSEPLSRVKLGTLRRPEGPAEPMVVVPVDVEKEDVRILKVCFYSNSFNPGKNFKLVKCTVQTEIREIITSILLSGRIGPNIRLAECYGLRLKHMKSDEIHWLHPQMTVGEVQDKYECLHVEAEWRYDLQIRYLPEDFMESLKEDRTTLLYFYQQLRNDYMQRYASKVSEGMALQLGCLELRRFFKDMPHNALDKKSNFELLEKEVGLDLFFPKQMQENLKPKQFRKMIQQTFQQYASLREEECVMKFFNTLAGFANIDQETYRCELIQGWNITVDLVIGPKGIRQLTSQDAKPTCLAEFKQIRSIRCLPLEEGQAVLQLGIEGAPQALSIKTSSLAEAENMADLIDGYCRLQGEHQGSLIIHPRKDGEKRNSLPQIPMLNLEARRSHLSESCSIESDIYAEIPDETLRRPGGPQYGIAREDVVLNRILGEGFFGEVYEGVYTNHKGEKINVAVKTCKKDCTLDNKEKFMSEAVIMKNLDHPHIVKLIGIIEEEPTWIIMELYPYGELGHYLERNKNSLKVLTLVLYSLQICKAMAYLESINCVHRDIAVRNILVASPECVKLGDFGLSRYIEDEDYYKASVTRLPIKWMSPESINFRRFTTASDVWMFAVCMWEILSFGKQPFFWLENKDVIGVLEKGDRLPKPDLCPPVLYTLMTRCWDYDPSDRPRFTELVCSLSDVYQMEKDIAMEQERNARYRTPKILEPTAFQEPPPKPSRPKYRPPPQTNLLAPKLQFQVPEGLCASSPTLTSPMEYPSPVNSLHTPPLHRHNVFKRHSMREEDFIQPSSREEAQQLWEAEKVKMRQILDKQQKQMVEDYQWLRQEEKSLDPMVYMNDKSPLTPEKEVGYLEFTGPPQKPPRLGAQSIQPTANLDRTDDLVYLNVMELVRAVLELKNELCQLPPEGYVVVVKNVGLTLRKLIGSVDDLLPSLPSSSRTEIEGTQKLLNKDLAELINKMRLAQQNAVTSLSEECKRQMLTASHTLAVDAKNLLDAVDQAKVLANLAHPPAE
Lytic switch protein BZLF1, sequence (P03206 whole entry): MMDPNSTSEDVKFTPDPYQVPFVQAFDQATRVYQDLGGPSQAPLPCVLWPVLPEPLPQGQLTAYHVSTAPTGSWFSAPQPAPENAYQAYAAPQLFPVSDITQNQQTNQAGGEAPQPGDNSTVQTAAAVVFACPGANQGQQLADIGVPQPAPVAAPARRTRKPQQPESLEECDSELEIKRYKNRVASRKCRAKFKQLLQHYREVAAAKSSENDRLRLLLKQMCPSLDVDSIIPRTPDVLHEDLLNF
Peroxisome proliferator-activated receptor gamma/Nuclear receptor coactivator 2, sequence (P37231 whole entry): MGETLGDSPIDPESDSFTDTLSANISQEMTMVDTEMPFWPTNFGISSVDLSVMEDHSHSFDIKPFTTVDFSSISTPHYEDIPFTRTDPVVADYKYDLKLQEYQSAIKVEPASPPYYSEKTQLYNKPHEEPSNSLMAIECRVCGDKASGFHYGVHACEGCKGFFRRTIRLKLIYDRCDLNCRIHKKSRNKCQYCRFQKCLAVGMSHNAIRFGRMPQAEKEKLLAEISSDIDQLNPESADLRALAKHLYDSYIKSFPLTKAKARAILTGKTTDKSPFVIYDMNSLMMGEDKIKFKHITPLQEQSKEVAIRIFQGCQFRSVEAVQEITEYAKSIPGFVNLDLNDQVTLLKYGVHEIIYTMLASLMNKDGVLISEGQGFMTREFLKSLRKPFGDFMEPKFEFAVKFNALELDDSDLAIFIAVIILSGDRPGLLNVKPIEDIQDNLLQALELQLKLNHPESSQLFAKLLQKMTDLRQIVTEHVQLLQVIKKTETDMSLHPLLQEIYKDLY
Peroxisome proliferator-activated receptor gamma/Nuclear receptor coactivator 2, sequence (Q15596 whole entry, further chain): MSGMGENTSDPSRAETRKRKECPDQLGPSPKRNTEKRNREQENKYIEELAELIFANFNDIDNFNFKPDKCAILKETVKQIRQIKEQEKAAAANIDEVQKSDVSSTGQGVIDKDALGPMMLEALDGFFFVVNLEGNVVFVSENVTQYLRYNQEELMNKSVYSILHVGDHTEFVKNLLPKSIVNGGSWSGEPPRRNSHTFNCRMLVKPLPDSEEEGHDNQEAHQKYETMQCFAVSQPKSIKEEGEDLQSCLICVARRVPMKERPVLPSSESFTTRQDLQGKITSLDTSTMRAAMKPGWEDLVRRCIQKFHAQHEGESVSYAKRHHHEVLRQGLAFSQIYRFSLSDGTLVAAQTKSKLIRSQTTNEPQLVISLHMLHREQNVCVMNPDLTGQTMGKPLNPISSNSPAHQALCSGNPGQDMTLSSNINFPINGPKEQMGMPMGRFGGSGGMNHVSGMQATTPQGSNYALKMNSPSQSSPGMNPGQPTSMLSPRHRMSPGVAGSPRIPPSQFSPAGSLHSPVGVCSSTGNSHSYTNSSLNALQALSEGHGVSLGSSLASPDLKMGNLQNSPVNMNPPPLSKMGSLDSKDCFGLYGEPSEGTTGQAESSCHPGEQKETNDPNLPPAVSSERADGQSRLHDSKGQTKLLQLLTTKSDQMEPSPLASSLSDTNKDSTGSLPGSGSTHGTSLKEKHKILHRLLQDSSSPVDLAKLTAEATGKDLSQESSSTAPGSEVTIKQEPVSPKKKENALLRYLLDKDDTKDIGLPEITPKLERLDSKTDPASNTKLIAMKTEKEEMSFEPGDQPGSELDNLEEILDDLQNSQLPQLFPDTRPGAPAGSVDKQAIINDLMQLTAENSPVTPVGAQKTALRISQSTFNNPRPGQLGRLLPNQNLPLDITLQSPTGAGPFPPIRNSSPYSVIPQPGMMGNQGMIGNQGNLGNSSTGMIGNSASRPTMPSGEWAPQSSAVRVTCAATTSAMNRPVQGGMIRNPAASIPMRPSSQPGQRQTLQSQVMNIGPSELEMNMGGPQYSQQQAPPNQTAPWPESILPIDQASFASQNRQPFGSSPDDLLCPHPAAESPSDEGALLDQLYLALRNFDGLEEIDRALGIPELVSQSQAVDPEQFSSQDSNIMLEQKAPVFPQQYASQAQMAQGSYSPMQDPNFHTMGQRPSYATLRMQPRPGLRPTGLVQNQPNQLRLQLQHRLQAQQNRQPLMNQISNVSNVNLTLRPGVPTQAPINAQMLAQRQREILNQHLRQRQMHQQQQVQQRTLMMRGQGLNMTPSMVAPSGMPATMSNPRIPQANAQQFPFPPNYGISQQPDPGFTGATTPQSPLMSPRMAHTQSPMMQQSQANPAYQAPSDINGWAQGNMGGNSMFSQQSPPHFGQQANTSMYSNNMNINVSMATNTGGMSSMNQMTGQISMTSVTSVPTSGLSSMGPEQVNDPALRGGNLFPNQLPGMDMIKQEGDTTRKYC

NC(=O)c1ccc(F)cc1
IC50 (Estrogen receptor): > 50 µM (not active)

CN1CCN(C2CC(=O)N(c3ccc(Cl)c(Cl)c3)C2=O)CC1 (stereo not given)
IC50 (Bcl-2-related protein A1 [1]): > 100 µM (not active) | IC50 (Bcl-2-related protein A1 [2]): > 100 µM (not active) | IC50 [3]: > 100 µM (not active)

CC1CCC(C(C)C)C(OC(=O)Cn2c(-c3ccc(Br)cc3)[n+](C)c3ccccc32)C1 (stereo not given)
EC50 [4]: 227 nM (active) and 290 nM (active) | EC50 [5]: < 0.1 µM (active) | AC50 [6]: 7.12 µM (active) | EC50 [7]: > 60 µM (not active) | IC50 [8]: > 20 µM (inactive) | AC50 (A-375): 36.8 µM (active) | EC50 (cells [9]): 0.409 µM (active) | AC50 (INS1; Rattus norvegicus, INS1): 3.63 µM (active) | AC50 (INS1; ins1): 2.8 µM (active)

COc1ccc(C2C=C(c3ccc(Cl)cc3)Nc3nc(NC(C)=O)nn32)cc1 (stereo not given)
IC50 (Estrogen receptor): 21.9 µM (active)

COc1ccc(-n2nc(C(=O)NCC(=O)Nc3ccccn3)c3ccccc3c2=O)cc1Cl
EC50 [10]: 37.7 µM (not active) | IC50 [11]: 42.3 µM (inactive) | EC50 (BJ [12]): 31.5 µM (active) | EC50 (BJ [13]): > 150 µM (not active) | EC50 (BJ [14]): 21.6 µM (active) | EC50 [15]: 25.8 µM (not active) | EC50 [16]: 28.5 µM (active) | EC50 (Melanocortin receptor 4): > 89.2 µM (inactive) | EC50 [17]: 19.2 µM (not active) | IC50 [18]: > 69.5 µM (not active) | IC50 [19]: 1.98 µM (active) | IC50 [20]: 3.14 µM (active)

O=c1cc(CSc2nnc(-c3cccs3)n2Cc2ccccc2)nc2sc3ccccc3n12
IC50 (Estrogen receptor beta [21]): 19.3 µM (not active) | IC50 (Galanin receptor type 3): 0.482 µM (active) | IC50 (Estrogen receptor beta [22]): < 1.56 µM (active) | IC50 [23]: 5.42 µM (active) | EC50 (cells [24]): > 29.9 µM (inactive)

c1cc2ccc3ccc(CN4CCOCC4)c4ccc(c1)c2c34
IC50 [18]: > 69.5 µM (not active)

COc1ncccc1-c1nnn(-c2ccccc2)n1
IC50 (Bcl-2-related protein A1 [1]): > 100 µM (not active) | IC50 (Bcl-2-related protein A1 [2]): > 100 µM (not active)

Cc1ccc(S(=O)(=O)Cc2ccc(C(=O)N3CCN(Cc4ccccc4)CC3)o2)cc1
IC50 (Estrogen receptor beta [21]): 19.2 µM (not active) | IC50 (Estrogen receptor beta [22]): 8.83 µM (active)

O=C(Cn1nnc(-c2ccccc2NC(=O)c2ccccc2)n1)Nc1ccc2c(c1)OCCO2
IC50 [25]: > 111 µM (not active) | IC50 [26]: 16.4 µM (not active)

CCOc1ccc(NC(=O)C(=O)N/N=C\c2ccc(CNS(=O)(=O)c3ccccc3)o2)cc1
IC50 [25]: > 111 µM (not active) | IC50 [26]: 7.23 µM (active)
